# Test results reported in PMC12281424, “A Rac-specific competitive inhibitor of guanine nucleotide binding reduces metastasis in triple-negative breast cancer” (Cell Reports Medicine, 2025).
# How the values were obtained:
# Dopamine D2L = Dopamine D2L (Homo sapiens, UniProt P14416); assay: Safety screen; assay type: binding
# Description: (§3) Blood cell counts, kinase profiler, safety screen, bacterial cytotoxicity, Ames, micronucleus assays were performed by the company Eurofins (France).
# Met(D1246H)(h) = Met(D1246H)(h) (Homo sapiens, UniProt P08581, D1228H); assay: Kinase Profiler; assay type: biochemical
# Description: (§4) The kinase profiler was performed by the company Eurofins (Discovery, Panlab and Cerep).
# CDK2/cyclinA(h) = CDK2/cyclinA(h) (Homo sapiens, UniProt P24941); assay: Kinase Profiler; assay type: biochemical
# Description: (§5) Blood cell counts, kinase profiler, safety screen, bacterial cytotoxicity, Ames, micronucleus assays were performed by the company Eurofins (France). The kinase profiler was performed by the company Eurofins (Discovery, Panlab and Cerep).
# p70S6K(h) = p70S6K(h) (Homo sapiens, UniProt P23443); assay: Kinase Profiler; assay type: biochemical
# Description: as §5
# CLIK1(h) = CLIK1(h) (Homo sapiens, UniProt Q8TDR2); assay: Kinase Profiler; assay type: biochemical
# Description: as §4
# RAC1 = RAC1 (Homo sapiens, UniProt P63000); assay: Surface plasmon resonance; assay type: binding; set-up: purchased Cytoskeleton RH01
# Description: SPR immobilization was performed at 25°C. RAC1, RHOA and CDC42 purified proteins (respectively […] and CD01, Cytoskeleton) were diluted to 5 μg/mL in Na^+ acetate buffer (pH 5.0) and injected into sensor chip CM5 (GE Healthcare) in a Biacore T200 (GE Healthcare) that was activated with NHS/EDC buffer. Approximately 5,000 response units of the purified protein were immobilized on the biosensor chip. Biosensor chips were blocked by an injection of 1 mM ethanolamine (pH 8.5). SPR analysis was performed at 25°C in HBSEP running buffer (5% DMSO) with or without EDTA (20 mM). A41 compound was injected over the RAC1, RHOA or CDC42 functionalized surface in concentration range from 0 to 25μM. Association and dissociation phases were monitored during 60s and 300s, respectively.
# NEK2(h) = NEK2(h) (Homo sapiens, UniProt P51955); assay: Kinase Profiler; assay type: biochemical
# Description: as §4
# PAK6(h) = PAK6(h) (Homo sapiens, UniProt Q9NQU5); assay: Kinase Profiler; assay type: biochemical
# Description: as §4
# DDR1(h) = DDR1(h) (Homo sapiens, UniProt Q08345); assay: Kinase Profiler; assay type: biochemical
# Description: as §5
# [1] = system: Glutamate, NMDA, Polyamine; assay: Safety screen; assay type: binding, rat
# Description: as §5
# Cannabinoid CB2 = Cannabinoid CB2 (Homo sapiens, UniProt P34972); assay: Safety screen; assay type: binding
# Description: as §3
# RAC1 P29S = target: T1, RAC1 P29S (Homo sapiens, UniProt P63000, P29S); assay: RAC-GTP pull-down in transfected NIH-3T3 fibroblasts; assay type: cell-based; details: 10^-5 M
# T1 construct: expressed in transfected cells; host or cells: NIH-3T3 fibroblasts
# Description: (§1) Figure 4 A41 selectively impairs RAC protein activation (A) Representative surface plasmon resonance (SPR) sensograms of binding of immobilized RHOA or CDC42 with indicated increasing concentrations of A41 (N > 3). (B) Effect of A41 on GEF-stimulated RAC2, RHOG, RHOA, and CDC42 nucleotide exchange. Purified small G proteins were pre-loaded with GDP and then nucleotide exchange was monitored by the increase in fluorescence following mant-GTP binding in the absence and presence of A41 (5 μM) (N = 3). Kobs is expressed as mean ± SEM. ∗p < 0.001 vs. control. (C) Effect of A41 on RAC1 G30S activation. RAC1 G30S activation was monitored by the increase in fluorescence following mant-GTP binding in the absence and presence of A41 (5 μM). […] Data are expressed as mean ± SEM. (D) Immunoblot analysis and associated quantification of RAC-GTP level and total RAC expression in NIH-3T3 fibroblasts expressing RAC wild-type (RAC1 WT) or RAC1 oncomutants (RAC1 P29S and RAC1b) in the absence (Ctrl) and presence of A41 (10 μM). RAC activation was measured as the ratio of RAC-GTP to total RAC and expressed relative to Ctrl condition. […]
# (§2) Pull-down assay using GST-PBD fusion proteins were performed on NIH-3T3 lysates to assess RAC1 activity as previously described.[63] The precipitated active RAC was subjected to SDS-PAGE and detected by immunoblot with anti-RAC1 antibody (BD biosciences) (dilution 1/1000).
# RAC1b = target: T2, RAC1b (Homo sapiens, UniProt P63000); assay: as above; assay type: cell-based; details: 10^-5 M
# T2 construct: expressed in transfected cells; host or cells: NIH-3T3 fibroblasts
# Description: as §1, §2
# MAPK2(h) = MAPK2(h) (Homo sapiens, UniProt P28482); assay: Kinase Profiler; assay type: biochemical
# Description: as §4
# CDK3/cyclinE(h) = CDK3/cyclinE(h) (Homo sapiens, UniProt Q00526); assay: Kinase Profiler; assay type: biochemical
# Sequence of CDK3/cyclinE(h) (P24864 whole entry): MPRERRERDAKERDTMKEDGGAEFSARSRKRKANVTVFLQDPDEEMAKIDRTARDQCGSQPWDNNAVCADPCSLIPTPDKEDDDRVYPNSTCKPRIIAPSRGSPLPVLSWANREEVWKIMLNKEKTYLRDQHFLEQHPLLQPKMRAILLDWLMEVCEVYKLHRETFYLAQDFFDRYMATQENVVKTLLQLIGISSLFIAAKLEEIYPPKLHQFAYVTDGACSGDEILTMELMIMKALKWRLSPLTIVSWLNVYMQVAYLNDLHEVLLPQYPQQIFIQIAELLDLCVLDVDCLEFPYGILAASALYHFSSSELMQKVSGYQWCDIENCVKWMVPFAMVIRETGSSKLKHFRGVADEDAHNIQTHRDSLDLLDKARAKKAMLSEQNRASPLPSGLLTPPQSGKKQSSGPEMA
# Sequence of CDK3/cyclinE(h) (Q00526 whole entry): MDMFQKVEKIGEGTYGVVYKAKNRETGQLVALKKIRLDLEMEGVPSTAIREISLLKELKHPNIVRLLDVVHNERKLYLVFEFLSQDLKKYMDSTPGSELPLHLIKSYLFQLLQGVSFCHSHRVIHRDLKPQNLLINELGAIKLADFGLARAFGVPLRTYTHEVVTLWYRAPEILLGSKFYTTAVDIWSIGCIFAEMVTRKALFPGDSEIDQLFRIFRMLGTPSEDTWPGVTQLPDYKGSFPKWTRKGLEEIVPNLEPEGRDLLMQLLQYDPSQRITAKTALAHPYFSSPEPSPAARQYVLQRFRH
# Description: as §5
# Sequence of PAK6(h) (Q9NQU5 whole entry): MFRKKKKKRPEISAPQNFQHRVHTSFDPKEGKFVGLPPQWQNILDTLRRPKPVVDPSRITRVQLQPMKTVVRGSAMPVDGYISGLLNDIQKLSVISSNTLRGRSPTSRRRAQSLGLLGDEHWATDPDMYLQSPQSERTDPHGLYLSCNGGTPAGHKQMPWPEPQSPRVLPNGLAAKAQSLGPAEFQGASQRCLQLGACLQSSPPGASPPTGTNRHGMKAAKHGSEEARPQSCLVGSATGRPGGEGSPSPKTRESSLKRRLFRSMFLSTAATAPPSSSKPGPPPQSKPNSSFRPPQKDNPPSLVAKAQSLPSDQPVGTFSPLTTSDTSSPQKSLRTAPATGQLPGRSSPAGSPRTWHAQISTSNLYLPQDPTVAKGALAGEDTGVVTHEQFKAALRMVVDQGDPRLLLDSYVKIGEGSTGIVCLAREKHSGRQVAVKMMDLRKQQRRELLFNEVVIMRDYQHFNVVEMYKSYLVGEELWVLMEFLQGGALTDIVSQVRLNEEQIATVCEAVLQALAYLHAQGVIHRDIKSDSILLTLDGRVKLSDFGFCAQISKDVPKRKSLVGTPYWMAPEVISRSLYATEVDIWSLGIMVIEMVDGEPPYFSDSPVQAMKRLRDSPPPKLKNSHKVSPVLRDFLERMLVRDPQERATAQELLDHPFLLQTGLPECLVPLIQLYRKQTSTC
# Sequence of p70S6K(h) (P23443 whole entry): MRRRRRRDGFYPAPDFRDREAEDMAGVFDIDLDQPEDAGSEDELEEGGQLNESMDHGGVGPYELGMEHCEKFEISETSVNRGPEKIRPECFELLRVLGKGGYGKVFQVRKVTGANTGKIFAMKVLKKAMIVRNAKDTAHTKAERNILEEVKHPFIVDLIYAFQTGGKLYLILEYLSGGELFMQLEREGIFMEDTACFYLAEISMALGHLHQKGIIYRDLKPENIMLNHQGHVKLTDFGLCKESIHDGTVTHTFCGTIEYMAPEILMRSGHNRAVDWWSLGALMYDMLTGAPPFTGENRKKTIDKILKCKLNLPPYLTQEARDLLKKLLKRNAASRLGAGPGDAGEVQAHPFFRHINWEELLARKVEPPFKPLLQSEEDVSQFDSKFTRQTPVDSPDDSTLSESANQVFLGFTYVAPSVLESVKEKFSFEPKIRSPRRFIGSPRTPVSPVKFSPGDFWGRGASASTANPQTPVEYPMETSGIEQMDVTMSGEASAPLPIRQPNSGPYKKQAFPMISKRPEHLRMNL
# Sequence of Cannabinoid CB2 (P34972 whole entry): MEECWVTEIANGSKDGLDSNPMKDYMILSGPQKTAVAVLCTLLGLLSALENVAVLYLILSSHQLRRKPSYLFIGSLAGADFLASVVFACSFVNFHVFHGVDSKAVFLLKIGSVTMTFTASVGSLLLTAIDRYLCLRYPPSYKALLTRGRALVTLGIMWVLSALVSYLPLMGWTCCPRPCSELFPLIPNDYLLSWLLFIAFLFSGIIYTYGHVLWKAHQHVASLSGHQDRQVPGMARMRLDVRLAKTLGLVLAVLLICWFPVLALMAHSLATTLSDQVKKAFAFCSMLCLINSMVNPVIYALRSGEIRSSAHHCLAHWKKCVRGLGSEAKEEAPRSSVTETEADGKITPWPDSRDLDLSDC
# Sequence of NEK2(h) (P51955 whole entry): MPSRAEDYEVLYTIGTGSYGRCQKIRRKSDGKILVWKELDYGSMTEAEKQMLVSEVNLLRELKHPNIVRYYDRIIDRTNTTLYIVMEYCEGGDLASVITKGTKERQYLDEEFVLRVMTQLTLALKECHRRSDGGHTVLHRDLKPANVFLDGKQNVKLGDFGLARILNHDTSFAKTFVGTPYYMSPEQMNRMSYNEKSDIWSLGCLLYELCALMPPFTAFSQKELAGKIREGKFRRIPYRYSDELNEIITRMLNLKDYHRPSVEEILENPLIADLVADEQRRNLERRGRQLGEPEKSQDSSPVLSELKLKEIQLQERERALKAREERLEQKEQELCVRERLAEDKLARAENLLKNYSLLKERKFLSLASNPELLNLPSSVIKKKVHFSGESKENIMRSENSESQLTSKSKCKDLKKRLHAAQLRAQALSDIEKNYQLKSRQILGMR
# Sequence of DDR1(h) (Q08345 19-913): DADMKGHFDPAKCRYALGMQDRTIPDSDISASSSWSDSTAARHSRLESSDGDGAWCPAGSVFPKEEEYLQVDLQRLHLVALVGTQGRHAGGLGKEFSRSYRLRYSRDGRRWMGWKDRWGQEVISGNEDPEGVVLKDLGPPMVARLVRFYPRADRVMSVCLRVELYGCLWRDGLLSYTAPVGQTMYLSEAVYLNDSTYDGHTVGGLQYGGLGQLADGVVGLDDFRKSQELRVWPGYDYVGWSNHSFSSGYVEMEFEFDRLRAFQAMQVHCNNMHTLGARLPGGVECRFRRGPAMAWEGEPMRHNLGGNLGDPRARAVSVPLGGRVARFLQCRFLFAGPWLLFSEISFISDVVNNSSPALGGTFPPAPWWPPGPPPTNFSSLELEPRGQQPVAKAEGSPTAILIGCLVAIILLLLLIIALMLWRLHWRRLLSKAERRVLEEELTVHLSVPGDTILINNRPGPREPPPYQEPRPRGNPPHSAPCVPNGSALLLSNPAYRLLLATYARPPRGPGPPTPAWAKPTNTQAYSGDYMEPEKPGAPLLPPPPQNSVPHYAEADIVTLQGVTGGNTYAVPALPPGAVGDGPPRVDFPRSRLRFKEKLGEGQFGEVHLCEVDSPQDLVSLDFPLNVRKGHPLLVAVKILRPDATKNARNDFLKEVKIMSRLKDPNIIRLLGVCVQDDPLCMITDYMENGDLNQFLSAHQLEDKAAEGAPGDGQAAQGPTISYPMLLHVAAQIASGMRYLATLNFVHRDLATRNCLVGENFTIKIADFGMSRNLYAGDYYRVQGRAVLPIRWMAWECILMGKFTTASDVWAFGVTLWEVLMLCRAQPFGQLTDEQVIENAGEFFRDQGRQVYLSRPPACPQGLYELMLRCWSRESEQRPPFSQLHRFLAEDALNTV
# Sequence of Dopamine D2L (P14416 whole entry): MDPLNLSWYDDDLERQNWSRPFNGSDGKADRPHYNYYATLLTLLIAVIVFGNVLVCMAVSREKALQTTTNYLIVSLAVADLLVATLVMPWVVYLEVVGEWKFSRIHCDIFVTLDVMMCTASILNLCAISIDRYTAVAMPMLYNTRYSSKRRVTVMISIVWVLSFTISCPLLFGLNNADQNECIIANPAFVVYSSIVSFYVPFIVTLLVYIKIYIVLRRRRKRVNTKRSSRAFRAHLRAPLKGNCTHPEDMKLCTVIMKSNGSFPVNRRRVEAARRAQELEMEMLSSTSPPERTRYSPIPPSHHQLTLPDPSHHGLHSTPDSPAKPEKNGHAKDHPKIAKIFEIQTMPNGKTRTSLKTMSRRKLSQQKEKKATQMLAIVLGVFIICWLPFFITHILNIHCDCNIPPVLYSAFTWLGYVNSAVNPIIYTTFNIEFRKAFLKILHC
# Sequence of MAPK2(h) (P28482 whole entry): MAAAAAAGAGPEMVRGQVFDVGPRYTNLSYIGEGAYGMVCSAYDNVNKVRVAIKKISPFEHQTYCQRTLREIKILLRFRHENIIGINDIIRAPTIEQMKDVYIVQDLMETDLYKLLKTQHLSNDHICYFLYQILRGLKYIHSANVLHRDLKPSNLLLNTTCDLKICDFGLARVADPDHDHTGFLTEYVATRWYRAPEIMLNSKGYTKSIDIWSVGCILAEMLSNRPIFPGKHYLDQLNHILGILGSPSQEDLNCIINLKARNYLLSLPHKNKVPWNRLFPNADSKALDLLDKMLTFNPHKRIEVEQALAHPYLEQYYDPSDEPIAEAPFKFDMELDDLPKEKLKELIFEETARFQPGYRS
# Sequence of CLIK1(h) (Q8TDR2 whole entry): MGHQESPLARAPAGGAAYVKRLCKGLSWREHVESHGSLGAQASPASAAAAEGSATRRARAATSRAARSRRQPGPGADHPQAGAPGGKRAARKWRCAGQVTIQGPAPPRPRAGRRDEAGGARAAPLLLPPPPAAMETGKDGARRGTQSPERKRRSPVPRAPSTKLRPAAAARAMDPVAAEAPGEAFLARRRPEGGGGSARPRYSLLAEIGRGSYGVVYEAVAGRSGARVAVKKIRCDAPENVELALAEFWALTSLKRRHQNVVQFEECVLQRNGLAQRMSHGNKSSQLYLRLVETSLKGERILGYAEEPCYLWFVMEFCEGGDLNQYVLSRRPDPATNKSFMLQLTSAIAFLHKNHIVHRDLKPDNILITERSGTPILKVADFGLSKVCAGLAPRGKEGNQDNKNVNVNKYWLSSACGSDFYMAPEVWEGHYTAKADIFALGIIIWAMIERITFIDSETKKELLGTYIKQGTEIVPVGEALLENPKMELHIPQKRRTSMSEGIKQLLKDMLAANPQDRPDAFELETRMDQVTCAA
structure (smiles),measurement,setting,value
COc1ccc(OC)c(NS(=O)(=O)c2ccc(NC(=O)CCSc3ccc(C)cc3)cc2)c1 [Compound A41],% inh.,Dopamine D2L,9%
same,Activity(%),Met(D1246H)(h),115%
same,Activity(%),CDK2/cyclinA(h),97%
same,Activity(%),p70S6K(h),103%
same,Activity(%),CLIK1(h),112%
same,binding to RAC1,RAC1; in the presence of 20 mM EDTA,strongly increased
same,Kd,"RAC1; purified RAC1-GDP, without EDTA",0.03 µM
same,Activity(%),NEK2(h),118%
same,Activity(%),PAK6(h),99%
same,Activity(%),DDR1(h),116%
same,% inh.,[1],19%
same,% inh.,Cannabinoid CB2,36%
same,activity of RAC P29S (RAC-GTP),RAC1 P29S,reduced the activity
same,activity of RAC1b (RAC-GTP),RAC1b,reduced the activity
same,Activity(%),MAPK2(h),103%
same,Activity(%),CDK3/cyclinE(h),77%
